# Molecular target: T1, human recombinant HDAC6 (Homo sapiens, UniProt Q9UBN7)
# T1 construct: purchased Calbiochem 382180
# T1 sequence (Q9UBN7 1-1215): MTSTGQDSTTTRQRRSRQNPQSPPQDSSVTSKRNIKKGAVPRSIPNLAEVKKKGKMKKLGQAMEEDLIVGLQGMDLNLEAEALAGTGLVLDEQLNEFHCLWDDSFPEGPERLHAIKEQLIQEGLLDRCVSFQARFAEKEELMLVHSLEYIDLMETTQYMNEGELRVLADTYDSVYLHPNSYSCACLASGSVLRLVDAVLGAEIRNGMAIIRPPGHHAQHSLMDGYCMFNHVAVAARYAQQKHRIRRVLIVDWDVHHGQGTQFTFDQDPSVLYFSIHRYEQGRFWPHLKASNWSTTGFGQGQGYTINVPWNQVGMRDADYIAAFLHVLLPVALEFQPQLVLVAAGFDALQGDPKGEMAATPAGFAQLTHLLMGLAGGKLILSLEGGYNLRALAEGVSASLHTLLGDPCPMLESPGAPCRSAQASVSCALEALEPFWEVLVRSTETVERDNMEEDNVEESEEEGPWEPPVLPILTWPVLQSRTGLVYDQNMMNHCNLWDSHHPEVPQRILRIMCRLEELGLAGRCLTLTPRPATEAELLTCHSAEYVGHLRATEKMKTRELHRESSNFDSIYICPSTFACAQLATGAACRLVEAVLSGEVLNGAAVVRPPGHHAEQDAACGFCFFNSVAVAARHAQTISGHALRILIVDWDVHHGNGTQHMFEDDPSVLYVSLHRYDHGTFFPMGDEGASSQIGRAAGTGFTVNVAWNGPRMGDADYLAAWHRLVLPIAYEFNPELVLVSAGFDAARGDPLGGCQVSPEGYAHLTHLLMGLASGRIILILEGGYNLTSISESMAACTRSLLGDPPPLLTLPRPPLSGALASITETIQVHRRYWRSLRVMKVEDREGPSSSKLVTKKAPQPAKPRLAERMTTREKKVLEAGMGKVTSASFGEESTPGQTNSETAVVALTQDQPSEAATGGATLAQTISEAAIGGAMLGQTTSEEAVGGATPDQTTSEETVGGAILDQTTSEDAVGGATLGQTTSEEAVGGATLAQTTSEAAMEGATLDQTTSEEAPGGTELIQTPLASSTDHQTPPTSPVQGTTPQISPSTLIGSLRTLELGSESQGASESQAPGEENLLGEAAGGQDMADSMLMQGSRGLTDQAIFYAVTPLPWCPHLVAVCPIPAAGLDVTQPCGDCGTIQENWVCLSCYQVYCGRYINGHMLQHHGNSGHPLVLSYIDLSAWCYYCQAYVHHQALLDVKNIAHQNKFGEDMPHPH
# Test: HDAC6 enzyme activity inhibition assay (HDAC Fluorimetric Drug Discovery Kit)
# Format: biochemical
# Conditions: for HDAC6 selectivity (fold): HDAC6 over HDAC1; for IC50: human recombinant HDAC6, same protocol as HDAC1, read-out: HDAC6
# Method in brief: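 Human recombinant HDAC1 or HDAC6 (0.3 μg) reacted with 10 μM Fluor de Lys-SIRT1 substrate and 5-fold compound dilutions for 60 min at 30 °C. Developer II added for 30 min, fluorescence read at Ex 360/Em 460; IC50 calculated from the readings.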
SMILES,HDAC6 selectivity (fold),IC50
"CC(=O)N1CCC2(CC1)CN(C(=O)N(Cc1ccc(-c3nnc(C(F)F)o3)cc1F)c1ccccc1)C2 [Compound 21500, 7-Acetyl-N-(4-(5-(difluoromethyl)-1,3,4-oxadiazol-2-yl)-2-fluorobenzyl)-N-phenyl-2,7-diazaspiro[3.5]nonane-2-carboxamide]",400 fold,25 nM
"O=C(N1CCS(=O)(=O)CC1)N(Cc1ccc(-c2nnc(C(F)F)o2)cc1F)c1ccc2c(c1)CCO2 [Compound 21544, N-(4-(5-(difluoromethyl)-1,3,4-oxadiazol-2-yl)-2-fluorobenzyl)-N-(2,3-dihydrobenzofuran-5-yl)thiomorpholine-4-carboxamide 1,1-dioxide]",294 fold,34 nM
"Cc1cccc(N(Cc2ccc(-c3nnc(C(F)F)o3)cc2F)C(=O)N2CCN(C)CC2)c1 [Compound 21470, N-(4-(5-(difluoromethyl)-1,3,4-oxadiazol-2-yl)-2-fluorobenzyl)-4-methyl-N-(m-tolyl)piperazine-1-carboxamide]",313 fold,32 nM
"Cc1cccc(N(Cc2ccc(-c3nnc(C(F)F)o3)cn2)C(=O)N2CCN(C)CC2)c1 [Compound 21597, N-((5-(5-(difluoromethyl)-1,3,4-oxadiazol-2-yl)pyridin-2-yl)methyl)-4-methyl-N-(m-tolyl)piperazine-1-carboxamide]",323 fold,31 nM
"CCN1CCN(C(=O)N(Cc2ccc(-c3nnc(C(F)F)o3)cn2)c2ccc(F)c(Cl)c2)CC1 [Compound 21629, N-(3-chloro-4-fluorophenyl)-N-((5-(5-(difluoromethyl)-1,3,4-oxadiazol-2-yl)pyridin-2-yl)methyl)-4-ethylpiperazine-1-carboxamide]",880 fold,11 nM
"O=C(N1CCOCC1)N(Cc1ccc(-c2nnc(C(F)(F)F)o2)cc1F)CC12CC3CC(CC(C3)C1)C2 [Compound 21933, N-(((3r,5r,7r)-adamantan-1-yl)methyl)-N-(2-fluoro-4-(5-(trifluoromethyl)-1,3,4-oxadiazol-2-yl)benzyl)morpholine-4-carboxamide]",4 fold,2410 nM
"O=C(N1CCOCC1)N(Cc1ccc(-c2nnc(C(F)(F)F)o2)cc1)c1ccc(F)cc1 [Compound 21426, N-(4-fluorophenyl)-N-(4-(5-(trifluoromethyl)-1,3,4-oxadiazol-2-yl)benzyl)morpholine-4-carboxamide]",20 fold,489 nM
"Cc1ccc(N(Cc2ccc(-c3nnc(C(F)(F)F)o3)cc2)C(=O)N2CCS(=O)(=O)CC2)c(F)c1 [Compound 21434, N-(2-fluoro-4-methylphenyl)-N-(4-(5-(trifluoromethyl)-1,3,4-oxadiazol-2-yl)benzyl)thiomorpholine-4-carboxamide 1,1-dioxide]",53 fold,188 nM
"O=C(N1CCS(=O)(=O)CC1)N(Cc1ccc(-c2nnc(C(F)(F)F)o2)cc1)c1ccc(Br)cc1 [Compound 21413, N-(4-bromophenyl)-N-(4-(5-(trifluoromethyl)-1,3,4-oxadiazol-2-yl)benzyl)thiomorpholine-4-carboxamide 1,1-dioxide]",41 fold,246 nM
"O=C(N1CCN(c2ccccc2)CC1)N(Cc1ccc(-c2nnc(C(F)(F)F)o2)cc1)c1ccccc1 [Compound 21358, N,4-diphenyl-N-(4-(5-(trifluoromethyl)-1,3,4-oxadiazol-2-yl)benzyl)piperazine-1-carboxamide]",10 fold,1050 nM
"CN1CCN(C(=O)N(Cc2ccc(-c3nnc(C(F)(F)F)o3)cc2F)c2ccc(F)c(Cl)c2)CC1 [Compound 21564, N-(3-chloro-4-fluorophenyl)-N-(2-fluoro-4-(5-(trifluoromethyl)-1,3,4-oxadiazol-2-yl)benzyl)-4-methylpiperazine-1-carboxamide]",88 fold,113 nM
"O=C(N1CCOCC1)N(Cc1ccc(-c2nnc(C(F)F)o2)cc1F)CC12CC3CC(CC(C3)C1)C2 [Compound 21932, N-(((3r,5r,7r)-adamantan-1-yl)methyl)-N-(4-(5-(difluoromethyl)-1,3,4-oxadiazol-2-yl)-2-fluorobenzyl)morpholine-4-carboxamide]",15 fold,684 nM
"O=C(N1CCOCC1)N(Cc1ccc(-c2nnc(C(F)(F)F)o2)cc1)c1ccccn1 [Compound 21424, N-(pyridin-2-yl)-N-(4-(5-(trifluoromethyl)-1,3,4-oxadiazol-2-yl)benzyl)morpholine-4-carboxamide]",54 fold,184 nM
"CC(C)C(=O)N1CCN(C(=O)N(Cc2ccc(-c3nnc(C(F)(F)F)o3)cc2)c2ccccc2)CC1 [Compound 21365, 4-Isobutyryl-N-phenyl-N-(4-(5-(trifluoromethyl)-1,3,4-oxadiazol-2-yl)benzyl)piperazine-1-carboxamide]",69 fold,145 nM
"CN1CCN(C(=O)N(Cc2ccc(-c3nnc(C(F)F)o3)cc2F)c2cccc(Cl)c2)CC1 [Compound 21467, N-(3-chlorophenyl)-N-(4-(5-(difluoromethyl)-1,3,4-oxadiazol-2-yl)-2-fluorobenzyl)-4-methylpiperazine-1-carboxamide]",323 fold,31 nM
"O=C(NCCN1CCN(c2ccccc2)CC1)N(Cc1ccc(-c2nnc(C(F)F)o2)cc1F)c1ccccc1 [Compound 22007, 1-(4-(5-(Difluoromethyl)-1,3,4-oxadiazol-2-yl)-2-fluorobenzyl)-1-phenyl-3-(2-(4-phenylpiperazin-1-yl)ethyl)urea]",40 fold,249 nM
"CS(=O)(=O)N1CC2(CCN(C(=O)N(Cc3ccc(-c4nnc(C(F)(F)F)o4)cc3)c3ccccc3)CC2)C1 [Compound 21419, 2-(Methylsulfonyl)-N-phenyl-N-(4-(5-(trifluoromethyl)-1,3,4-oxadiazol-2-yl)benzyl)-2,7-diazaspiro[3.5]nonane-7-carboxamide]",130 fold,77 nM
"O=C(N1CCS(=O)(=O)CC1)N(Cc1ccc(-c2nnc(C(F)F)o2)cn1)c1ccccc1 [Compound 21373, N-((5-(5-(difluoromethyl)-1,3,4-oxadiazol-2-yl)pyridin-2-yl)methyl)-N-phenylthiomorpholine-4-carboxamide 1,1-dioxide]",500 fold,20 nM
"CN1CCN(C(=O)N(Cc2ccc(-c3nnc(C(F)F)o3)cc2F)c2cccc3cnn(C)c23)CC1 [Compound 21707, N-(4-(5-(Difluoromethyl)-1,3,4-oxadiazol-2-yl)-2-fluorobenzyl)-4-methyl-N-(1-methyl-1H-indazol-7-yl)piperazine-1-carboxamide]",199 fold,50 nM
"CC(C)(F)CN1CCN(Cc2ccc(N(Cc3ccc(-c4nnc(C(F)F)o4)cc3F)C(=O)N3CCS(=O)(=O)CC3)cc2)CC1 [Compound 21901, N-(4-(5-(difluoromethyl)-1,3,4-oxadiazol-2-yl)-2-fluorobenzyl)-N-(4-((4-(2-fluoro-2-methylpropyl)piperazin-1-yl)methyl)phenyl)thiomorpholine-4-carboxamide 1,1-dioxide]",29 fold,349 nM
"CCCCN(Cc1ccc(-c2nnc(C(F)F)o2)cc1)C(=O)Nc1ccccc1 [Compound 21576, 1-Butyl-1-(4-(5-(difluoromethyl)-1,3,4-oxadiazol-2-yl)benzyl)-3-phenylurea]",24 fold,409 nM
"CN1CCN(C(=O)N(Cc2ccc(-c3nnc(C(F)F)o3)cc2F)c2cccc(-c3ccc4c(cnn4C)c3)c2)CC1 [Compound 21537, N-(4-(5-(difluoromethyl)-1,3,4-oxadiazol-2-yl)-2-fluorobenzyl)-4-methyl-N-(3-(1-methyl-1H-indazol-5-yl)phenyl)piperazine-1-carboxamide]",145 fold,69 nM

# — patent publication US10717716B2, “1,3,4-oxadiazole derivative compounds as histone deacetylase 6 inhibitor, and the pharmaceutical composition comprising the same” (Chong Kun Dang Pharmaceutical Corp., priority 2015, dated 2020)
